Common to all, as to format: cell-based
In one data set the test system is S. aureus. In words: Zone of inhibition on agar plates. Particulars: Staphylococcus aureus, 37° C., 24 h, 25 mg hydrogel with 2 mg drug. The procedure: (§1) S. aureus and S. mutans were cultured in nutrient broth and spread onto agar plates. Hydrogels (25 mg SF doxy hydrogel having 5 mm diameter with 2 mg drug) were kept in each plate in the center on the media and for doxycycline, drug was added in the center where the media was punched out. Plates were incubated at 37° C. for 24 h. After the incubation period, radius of the zone of inhibition was measured in each plate.

The subject of another data set is S. mutans. In words: Zone of inhibition on agar plates. As to conditions: Streptococcus mutans, 37° C., 24 h, 25 mg hydrogel with 2 mg drug. The procedure: as §1
The nature of the next data set: MTT assay cell viability. The procedure: All the three cell lines (10,000 cells/200 μl medium) were cultured in their respective media in 96-well plates until they reached 60% confluency. Hydrogels and doxycycline were added in their respective wells. Plates were incubated at 37° C., 5% CO2, for 24 h. Media were removed and 200 μl of MTT solution (0.5 mg/ml prepared in phosphate buffer saline (PBS, Himedia, Catalog #TS1119)) was added to each well. Plate was incubated in dark at 37° C., 5% CO2 for 4h. MTT solution was then removed and 100 μl demthyl sulfoxide (DMSO) was added to each well to dissolve the formazan crystal. Absorbance was calculated at 570 nm in the multiplate reader. Percent of cell viability was calculated using Equation 2.
Where, O.D. is optical density at 570 nm.

Broadly, the zone of inhibition is the extent of the growth-free halo in a diffusion test. Read a high zone of inhibition as wide suppression of growth. Usually viability stands for a read-out of living cells in per cent, often relative to untreated cells. Low readings indicate more harm to the cells, high ones less harm to the cells. As to `C[C@H]1c2cccc(O)c2C(=O)C2=C(O)[C@]3(O)C(=O)C(C(N)=O)=C(O)[C@@H](N(C)C)[C@@H]3[C@@H](O)[C@@H]21` [doxycycline], the zone of inhibition at 2000 µg/disc was found to be 10 mm in the data set with S. aureus and 25 mm with S. mutans. Moreover, the viability at 24 h turned out to be 40% in the data set “MTT assay cell viability” (human, HDFC cells); 40% in the data set “MTT assay cell viability” (human, MG63 cells, MG63, 24 h); 40% in “MTT assay cell viability” (mouse, MC3T3 cells, MC3T3, 24 h).

The record behind these values is patent US20250144170A1, “METHOD FOR SUSTAINED DRUG DELIVERY FOR WOUND HEALING USING SILK HYDROGEL AND PRODUCT THEREOF” (AASYA HEALTH CARE PRIVATE LIMITED, priority 2022, published 2025).
